Laboratory results from patent US4510338A, “Resorcin derivatives, process for their preparation and pharmaceutical compositions containing them” (priority 1982, dated 1985).

Columns and labels:
[1] = system: ethanolic locomotoric hyperactivity; settings: mice, Carlsson et al. 1972, cited from earlier work
ethanolic narcosis = test: Ethanolic narcosis period (righting reflex); format: in vivo, Hann.-Wistar rats; settings: for Ethanolic narcosis period (x ± S.E. %), related to control: 1 h before 3.5 g/kg ethanol i.p., n=10
Description: The change of ethanolic narcosis period was tested on Hann.-Wistar rats of both sexes weighing 160 to 180 g. each, which were fasted for 16 hours prior to treatment. Groups of ten were treated with various doses of a test compound of the formula (I), orally. One hour after treatment the rats were administered a 3.5 g./kg. dose of ethanol intraperitoneally. The narcosis period of the animals was measured from the elapse of the righting reflex until a spontaneous correction of the body position. The average of the narcosis period and the percentage difference related to the control were calculated. The control group was treated with placebo and a […]. dose of ethanol. Control narcosis period: 99.6±6.55 (x±S.E.) min.

in vivo = settings: rat, oral, male Hann.-Wistar rats, 14 days observation, probit analysis
Description: The acute toxicity of the compounds according to the invention was tested on male Hann.-Wistar rats each weighing 160 to 180 g. The animals were treated with various doses of the test compounds orally, and the dose resulting in the perish of 50% of the animals was calculated by probite analysis from the %-age of the perished animals.

[2] = system: ethanolic locomotor activity; test: Locomotor activity change by ethanol (Animex BSE motimeter); format: in vivo, BALB/c mice; settings: n=15
Description: The change of ethanolic locomotor activity was tested on BALB/c mice of both sexes, weighing 16 to 18 g. each. Groups of 15 were treated with a 40 mg./kg. oral dose of the test compound 60 minutes prior to the administration of placebo and 2 g./kg. ethanol, respectively (i.p.).
The control animals were treated with placebo. The locomotor activity of the animals was measured for two hours with an Animex BSE motimeter.

[3] = system: ataxia induced by ethanol; test: Ataxia induced by ethanol, rotarod test; format: in vivo, BALB/c mice
Description: Previously trained and selected BALB/c mice weighing 16 to 18 g. each were treated with a 40 mg./kg. dose of the compound to be tested orally, one hour before the intraperitoneal administration of a 2.5 g./kg. dose of ethanol. The number of the animals remaining on the rods 60, 90 and 120 minutes, resp., after treatment with ethanol was determined. The animals having an intact coordination could stay at the rod as long as 120 minutes. The test was carried out on groups of ten.

[4] = system: alcoholic intoxication, narcosis; settings: Sprince et al. 1974; Nagasawa et al. 1975; cited from earlier work

SMILES: CC(N)(Cc1ccc(O)cc1)C(=O)O (stereo not drawn) [α-Methyl-para-tyrosine]
- Spontaneous locomotoric activity ([1]; same dose range): decreases the spontaneous locomotoric activity
- Ethanolic locomotoric hyperactivity [1]: normalizes the ethanolic locomotoric hyperactivity

SMILES: CCC(O)(c1cccc(C(F)(F)F)c1)c1ccc(O)cc1O (stereo not drawn) [A, 4-[1-(3-trifluoromethylphenyl)-1-hydroxypropyl]-resorcin]
- Ethanolic narcosis period (x ± S.E. %), related to control (ethanolic narcosis; 0.3 mg/kg orally): 70 ± 11.4%
- Ethanolic narcosis period (x ± S.E. %), related to control (ethanolic narcosis; 1.0 mg/kg orally): 60 ± 9.2%
- Ethanolic narcosis period (x ± S.E. %), related to control (ethanolic narcosis; 5.0 mg/kg orally): 36 ± 4.0%
- Ethanolic narcosis period (x ± S.E. %), related to control (ethanolic narcosis; 20.0 mg/kg orally): 30 ± 5.5%
- LD50 at 336 h (in vivo): 1250 mg/kg
- Total locomotor motion/2 hours in % of the control ([2]; 40 mg/kg oral + placebo (no ethanol)): 110 ± 10.3%
- Total locomotor motion/2 hours in % of the control ([2]; 40 mg/kg oral, 60 min before 2000 mg/kg ethanol i.p.): 98 ± 9.5%
- Animals remaining on the rotating rod (%) ([3]; 40 mg/kg oral + 2500 mg/kg ethanol i.p., 60 min): 40%
- Animals remaining on the rotating rod (%) ([3]; 40 mg/kg oral + 2500 mg/kg ethanol i.p., 90 min): 60%
- Animals remaining on the rotating rod (%) ([3]; 40 mg/kg oral + 2500 mg/kg ethanol i.p., 120 min): 100%
- Animals remaining on the rotating rod (%) ([3]; 40 mg/kg oral, no ethanol, 60 min): 100%
- Animals remaining on the rotating rod (%) ([3]; 40 mg/kg oral, no ethanol, 90 min): 100%
- Animals remaining on the rotating rod (%) ([3]; 40 mg/kg oral, no ethanol, 120 min): 100%

SMILES: N[C@@H](CS)C(=O)O [L-cysteine, reference compound]
- Ethanolic narcosis period (x ± S.E. %), related to control (ethanolic narcosis; 500.0 mg/kg orally): 63 ± 4.2%
- Dose dependence of effect on ethanolic narcosis period (ethanolic narcosis; rats, oral): dose-dependent, unlike that of L-cysteine
- Alcoholic intoxication, narcosis duration [4]: shortened
